The source of these data is paper PMC7026418, “The kinase polypharmacology landscape of clinical PARP inhibitors” (Scientific Reports, 2020).

The target of assay [1] is T1, HIPK1 (Homo sapiens, UniProt Q86Z02). Description: biochemical. The following applies: read-out: Niraparib.
Assay [2] concerns the target DYRK1B (Homo sapiens, UniProt Q9Y463). Description: biochemical. To be noted: read-out: % inhibition.
The target in assay [3] is T2, Aurora B (Homo sapiens, UniProt Q96GD4).
T2 construct: gene AURKB
Briefly: biochemical. To be noted: read-out: Niraparib.

Assay [4] deals with T3, LATS2 (Homo sapiens, UniProt Q9NRM7).
T3 sequence (Q9NRM7 1-1088): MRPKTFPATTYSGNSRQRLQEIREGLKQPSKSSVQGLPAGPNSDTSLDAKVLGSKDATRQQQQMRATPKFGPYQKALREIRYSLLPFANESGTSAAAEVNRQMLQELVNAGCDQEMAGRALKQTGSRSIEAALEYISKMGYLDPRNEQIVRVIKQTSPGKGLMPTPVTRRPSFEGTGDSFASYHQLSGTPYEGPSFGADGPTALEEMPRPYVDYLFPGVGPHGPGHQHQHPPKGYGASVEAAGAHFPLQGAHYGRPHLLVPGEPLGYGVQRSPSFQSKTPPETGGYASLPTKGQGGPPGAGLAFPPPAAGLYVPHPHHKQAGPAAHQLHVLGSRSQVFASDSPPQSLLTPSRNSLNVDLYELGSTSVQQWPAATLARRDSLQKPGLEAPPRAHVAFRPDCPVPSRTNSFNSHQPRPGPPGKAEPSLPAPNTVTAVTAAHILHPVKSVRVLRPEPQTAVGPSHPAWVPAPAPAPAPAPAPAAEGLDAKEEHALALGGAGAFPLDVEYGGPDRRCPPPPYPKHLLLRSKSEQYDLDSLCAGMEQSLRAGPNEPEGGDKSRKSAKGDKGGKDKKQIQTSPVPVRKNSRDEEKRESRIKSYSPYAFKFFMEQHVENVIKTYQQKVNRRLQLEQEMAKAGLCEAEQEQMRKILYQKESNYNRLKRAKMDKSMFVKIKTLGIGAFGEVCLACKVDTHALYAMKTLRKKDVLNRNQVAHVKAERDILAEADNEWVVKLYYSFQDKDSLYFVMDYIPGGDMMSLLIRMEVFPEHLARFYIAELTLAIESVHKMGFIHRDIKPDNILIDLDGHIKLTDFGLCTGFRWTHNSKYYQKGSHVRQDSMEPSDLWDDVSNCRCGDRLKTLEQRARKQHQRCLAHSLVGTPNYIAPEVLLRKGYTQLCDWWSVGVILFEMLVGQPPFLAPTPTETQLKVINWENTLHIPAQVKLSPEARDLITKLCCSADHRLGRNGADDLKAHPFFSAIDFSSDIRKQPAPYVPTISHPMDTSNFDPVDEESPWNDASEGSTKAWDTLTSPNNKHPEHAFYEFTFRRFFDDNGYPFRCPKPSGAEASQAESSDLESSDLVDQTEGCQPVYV
Briefly: biochemical. Also noted: Reaction Biology HotSpot radiometric 33P-ATP catalytic assay at Km ATP; percent inhibition versus DMSO, mean n=2. The following applies: Km ATP. The text has this:
(§1) Unreacted phosphate is removed via washing the filters.

Assay [5] concerns the target T4, PIM1 (Homo sapiens, UniProt P11309). Description: biochemical. To be noted: Km ATP. Further details: Reaction Biology HotSpot radiometric 33P-ATP catalytic assay at Km ATP; percent inhibition versus DMSO, mean n=2.
Description: as §1

Assay [6] deals with FLT3(ITD) (Homo sapiens, UniProt P36888). Briefly: biochemical. Further details: DiscoveRx KINOMEscan active site-directed competition binding; percent of control kinase bound to immobilised ligand. To be noted: binding competition, % of control.
The target in assay [7] is T5, MYLK4 (Homo sapiens, UniProt Q86YV6).
T5 sequence (Q86YV6 1-388): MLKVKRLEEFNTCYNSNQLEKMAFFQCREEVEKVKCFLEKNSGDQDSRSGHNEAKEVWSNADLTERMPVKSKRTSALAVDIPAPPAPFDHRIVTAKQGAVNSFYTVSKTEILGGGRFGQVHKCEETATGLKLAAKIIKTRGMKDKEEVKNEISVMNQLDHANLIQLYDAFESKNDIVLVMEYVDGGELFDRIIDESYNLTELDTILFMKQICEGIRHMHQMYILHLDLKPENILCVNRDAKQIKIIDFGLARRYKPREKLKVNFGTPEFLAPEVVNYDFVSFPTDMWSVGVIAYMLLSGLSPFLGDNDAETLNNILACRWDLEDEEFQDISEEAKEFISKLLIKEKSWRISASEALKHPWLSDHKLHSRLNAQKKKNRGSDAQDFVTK
Briefly: HotSpot radiometric kinase assay at […] (Km ATP), follow-up of KinomeScan binding. To be noted: read-out: Rucaparib. It is filed as biochemical.

Assay [8] concerns the target T6, TSSK3 (Homo sapiens, UniProt Q96PN8).
T6 sequence (Q96PN8 1-268): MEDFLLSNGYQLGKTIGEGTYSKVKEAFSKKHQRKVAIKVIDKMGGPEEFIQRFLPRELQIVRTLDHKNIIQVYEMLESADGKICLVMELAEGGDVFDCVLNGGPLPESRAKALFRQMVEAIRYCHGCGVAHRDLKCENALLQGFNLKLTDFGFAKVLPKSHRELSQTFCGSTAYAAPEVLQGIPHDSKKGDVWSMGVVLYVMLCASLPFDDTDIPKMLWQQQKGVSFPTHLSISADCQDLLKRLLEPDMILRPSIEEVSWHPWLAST
Briefly: biochemical. The following applies: Km ATP. Also noted: Reaction Biology HotSpot radiometric 33P-ATP catalytic assay at Km ATP; percent inhibition versus DMSO, mean n=2.
Description: as §1

Assay [9] has as its target T1, HIPK1. Briefly: biochemical. To be noted: Km ATP. Also noted: Reaction Biology HotSpot radiometric 33P-ATP catalytic assay at Km ATP; percent inhibition versus DMSO, mean n=2.
Description: as §1

Assay [10] deals with T4, PIM1. Description: KinomeScan active site-directed competition binding at […]; […] catalytic inhibition at […] (n = […]).

Where two headings read alike, the source gives them in different places.

As to `NC(=O)c1cccc2cn(-c3ccc([C@@H]4CCCNC4)cc3)nc12` [Niraparib], the inhibition at 1 µM in [1] turned out to be 40%; in assay [2] it was 82%; in [3], 34%; in assay [4], 17%; in [5], 22%.
Turning to `CNCc1ccc(-c2[nH]c3cc(F)cc4c3c2CCNC4=O)cc1` [Rucaparib], the “Rucaparib / %Ctrl @ 10000nM” value in assay [6] is listed as 41%. Also, the figures for the inhibition at 1 µM in assay [7], in assay [8] and in [9] were 36%, -1% and -16%, respectively. Further, the “KinomeScan active site-directed competition binding at 10 μM; 27% catalytic inhi” value in [10] was “recover most of the previously known off-targets of rucaparib, including the most potent known interactions with PIM1 and DYRK1A”.
